Source: publication PMC10764104, “Discovery of Molecular Glue Degraders via Isogenic Morphological Profiling” (ACS Chemical Biology, 2023)

Test system: RKO WT cells
Conditions: 48 h, up to 13.5 μM tested
Description: Prior to screening the compound library in the isogenic CPA, we assessed their CRBN binding affinities using a fluorescence-polarization-based competition assay with recombinant DDB1-CRBN and the fluorescent tracer 16 (Figure S2). […] We also assessed the cytotoxicity of the CRBN binders in RKO wild-type (WT) cells to determine the appropriate treatment concentration.
Assessment of gene expression and essentiality in RKO WT
Public datasets on the transcriptome and essentiality of a protein‐encoding gene for RKO (cell line ID: ACH‐000943) were retrieved from DepMap Public 23Q2 (https://depmap.org/portal/, accessed on 14 August 2023). […]
Fluorescence Polarization‐based competition assay
Fluorescence Polarization assays were performed in 384‐well, Low Volume, Black, Round Bottom, Polystyrene Nonbinding surface Microplates (Corning, #4514). […] Fluorescence polarization values were determined with a PerkinElmer Envision reader with FITC FP dual mirror and FITC FP 480 excitation filter and FITC FP 535 emission filters. Fluorescence polarization values of a 10x serial dilution (10 nM to 100 µM) of the test compounds were determined in triplicates. EC50 values were calculated with GraphPad Prism software (version 10.0.2) with a non‐linear fit function (4PL sigmoidal curve fit) adjusting the bottom constrain to the FP value of free tracer. […]

Structure (SMILES): CN(Cc1ncc(C2CC2)o1)S(=O)(=O)Oc1ccc(Nc2ccc3c(c2)C(=O)N(C2CCC(=O)NC2=O)C3=O)cc1 (stereo not shown) [FL2-14]
- cytotoxicity (CellTiter-Glo): not cytotoxic
